One block for each compound: values may come before it. Active and inactive are the calls of the source.
Key:
[1] = molecular target: Kallikrein-7 (Homo sapiens, UniProt P49862); assay: Fluorescence Intensity-based biochemical primary high throughput dose response assay to identify activators of kallikrein-7 (K7) zymogen.
[2] = mouse embryonic fibroblast toxicity – cell-based, plate reader, dry powder, set 2, cytotoxicity control, dose response (AID 652280); assay type: functional; details: NIH3T3
[3] = T. cruzi growth inhibition in host cells, dose response, cell-based, plate reader, dry powder, set 2 (AID 652275); assay type: functional
[4] = anti-trypanosomal activity in BESM host cells – imaging, CA-I/72 strain, bovine embryo skeletal muscle, dry powder, dose response (AID 651885); assay type: functional, cell-based
[5] = IC50 of insulin release inhibition, rat insulinoma INS-1E line, 5 mM glucose, cell-based (AID 1117331); assay type: functional
[6] = molecular target: T1, Oxysterols receptor LXR-beta (Homo sapiens, UniProt P55055); assay type: functional, cell-based;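 further: Cell-based luminescence dose-response assay of agonist activity at LXR, run as a confirmatory counterscreen to a daf-12 agonist screen; HEK293 cells with Gal4-LXR fusion and GAL4-driven luciferase reporter; agonist potency from rising luciferase signal of a Gal4-LXR reporter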
T1 sequence (P55055 whole entry): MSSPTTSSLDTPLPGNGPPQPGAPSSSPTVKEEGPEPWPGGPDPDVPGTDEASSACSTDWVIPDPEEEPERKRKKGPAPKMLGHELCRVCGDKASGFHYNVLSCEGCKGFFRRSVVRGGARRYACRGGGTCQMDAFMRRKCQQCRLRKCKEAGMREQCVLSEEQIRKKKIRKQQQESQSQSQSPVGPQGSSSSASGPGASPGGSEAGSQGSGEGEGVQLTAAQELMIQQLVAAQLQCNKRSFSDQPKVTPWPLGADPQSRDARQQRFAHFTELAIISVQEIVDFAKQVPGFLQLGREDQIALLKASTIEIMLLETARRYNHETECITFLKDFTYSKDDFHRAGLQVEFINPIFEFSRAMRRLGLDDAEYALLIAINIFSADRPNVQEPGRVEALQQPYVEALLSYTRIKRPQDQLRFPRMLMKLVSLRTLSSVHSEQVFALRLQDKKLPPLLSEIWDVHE

[7] = cells
[8] = molecular target: T2, Potassium channel subfamily K member 9 (Homo sapiens, UniProt Q9NPC2); assay: TASK3 channel blockers, electrophysiology – cell-based, automated electrophysiology, selectivity assay for TASK1 (KCNK3) inhibitor project, SAR follow-up (AID 652210); assay type: functional
[9] = molecular target: T2, Potassium channel subfamily K member 9; assay: KCNK9 flux blockade, concentration-response – cell-based, FluxOR thallium flux, selectivity assay for TASK1 inhibitor project, SAR follow-up (AID 652211); assay type: functional;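 further: potency is for inhibitors of the channel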
[10] = molecular target: Potassium channel subfamily K member 3 (Rattus norvegicus, UniProt O54912); assay: SAR analysis for the identification of selective inhibitors of the two-pore domain potassium channel TASK1(KCNK3):Automated Electrophysiology.; assay type: functional
[11] = molecular target: Potassium channel subfamily K member 3 (Homo sapiens, UniProt O14649); assay: inhibition of human KCNK3 channel flux – CHO cells, FluxOR thallium flux, SAR follow-up (AID 652212); assay type: functional
[12] = molecular target: T3, Heat shock factor protein 1 (Mus musculus, UniProt P38532); assay: decrease of HSF1-responsive luciferase luminescence – cell-based, NIH3T3, dose retest, confirmation (AID 2382); assay type: functional;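 further: NIH3T3 fibroblasts with HSF1-driven luciferase reporter stressed by proteasome inhibitor MG132; luminescence from HSF1-driven luciferase expression after 8 hours of MG132 stress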
T3 sequence (P38532 whole entry): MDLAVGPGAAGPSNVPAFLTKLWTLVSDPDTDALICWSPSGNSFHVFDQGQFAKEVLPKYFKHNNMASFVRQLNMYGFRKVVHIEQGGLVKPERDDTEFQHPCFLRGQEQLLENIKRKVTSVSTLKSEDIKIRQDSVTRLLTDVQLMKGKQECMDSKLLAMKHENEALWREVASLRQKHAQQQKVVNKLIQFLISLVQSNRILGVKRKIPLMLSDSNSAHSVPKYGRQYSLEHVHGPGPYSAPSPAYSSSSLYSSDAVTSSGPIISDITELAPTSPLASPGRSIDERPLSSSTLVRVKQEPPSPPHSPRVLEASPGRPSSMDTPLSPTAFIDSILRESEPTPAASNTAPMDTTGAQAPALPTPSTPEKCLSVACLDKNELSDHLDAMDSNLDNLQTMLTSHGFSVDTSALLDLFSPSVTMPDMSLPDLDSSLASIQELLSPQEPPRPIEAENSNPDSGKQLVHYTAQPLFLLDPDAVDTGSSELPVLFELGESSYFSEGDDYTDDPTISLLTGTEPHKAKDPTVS

[13] = HEK-293T viability loss after treatment – luminescence, T-cell screen hits, cytotoxicity control for TCR NF-kB inhibitor project, dose response (AID 489026); assay type: functional, cell-based;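 further: cells exposed to compound about 14 hours before the viability readout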
[14] = reduction of Shn3 3'UTR-driven luciferase in osteoblasts – cell-based, Clone20 osteoblasts, firefly luciferase, cherry-picked, dose response (AID 624132); assay type: functional;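 further: firefly luciferase luminescence from reporter carrying the Shn3 3'UTR in osteoblasts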
[15] = loss of viability in HepG2 cells – cell-based, CellTiter-Glo, cherry-picked, cytotoxicity control for Shn3 inhibitor project, dose response (AID 624134); assay type: functional
[16] = molecular target: Paired box protein Pax-8 (Homo sapiens, UniProt Q06710); assay: PAX8 transcriptional activity inhibition in RMG-I – RMG-I cells, luciferase, cherry-pick, dose response (AID 687027); assay type: functional, cell-based;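 further: luciferase reporter driven by Pax8 target thyroperoxidase promoter measured by SteadyGlo luminescence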
[17] = Shn3 3'UTR reporter signal decrease – cell-based, Clone20 osteoblasts, firefly luciferase, cherry-pick, set 2, Schnurri-3 inhibitor project, dose response (AID 720490); assay type: functional;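 further: actives lower the luminescence signal as inhibitors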
[18] = toxicity toward HepG2 liver cells – cell-based, plate reader, cherry-pick, antagonist series, cytotoxicity control, dose response (AID 743416); assay type: functional
[19] = blockers of bursicon-stimulated LGR2 cAMP reporter – cell-based, HEK293, CRE-luciferase reporter, cherry pick, set 2, dose response (AID 743343); assay type: functional;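 further: transfected cells were stimulated with diluted bursicon conditioned medium after compound addition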
[20] = blockade of melanocortin 4 receptor signaling – cell-based, plate reader, cherry pick, counter-screen for LGR2 antagonist project, dose response (AID 743444); assay type: functional;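 further: transfected HEK 293 cells stimulated with alpha-MSH peptide; potency of inhibitors of the alpha-MSH evoked signal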
[21] = viability loss in HEK293 cells – cell-based, plate reader, cherry-picked samples, cytotoxicity control, dose response (AID 743446); assay type: functional
[22] = rise of 2N DNA cells, HeLa – IC50, dose response (AID 1117349); assay type: functional, cell-based
[23] = CellTiter-Glo luminescence survival assay, SW480 colon tumor line, concentration-response curve, half-maximal inhibitory concentration (AID 1117338); assay type: functional
[24] = RKO cell viability reduction, dose response, CellTiter-Glo luminescence (AID 1117322); assay type: functional
[25] = cytotoxicity toward HCT116 cells – cell-based, CellTiter-Glo luminescence, IC50, dose response (AID 1117332); assay type: functional; details: HCT-116
[26] = SNU-C1 cell viability reduction, dose response, CellTiter-Glo luminescence (AID 1117323); assay type: functional, cell-based
[27] = cytotoxicity toward Colo320 cells – cell-based, CellTiter-Glo luminescence, IC50, dose response (AID 1117334); assay type: functional; details: COLO 320
[28] = rise of 4N DNA cells, HeLa – IC50, dose response (AID 1117351); assay type: functional, cell-based
[29] = cytotoxicity toward HT-29 cells – cell-based, CellTiter-Glo luminescence, IC50, dose response (AID 1117330); assay type: functional
[30] = Reduced DLD-1 viability, concentration-response, CellTiter-Glo luminescence (AID 1117352); assay type: functional
[31] = HCT116 cell viability decrease, GSK3B pretreatment – CellTiter-Glo, IC50, dose response (AID 1117339); assay type: functional; details: HCT-116

T2 sequence (Q9NPC2 whole entry): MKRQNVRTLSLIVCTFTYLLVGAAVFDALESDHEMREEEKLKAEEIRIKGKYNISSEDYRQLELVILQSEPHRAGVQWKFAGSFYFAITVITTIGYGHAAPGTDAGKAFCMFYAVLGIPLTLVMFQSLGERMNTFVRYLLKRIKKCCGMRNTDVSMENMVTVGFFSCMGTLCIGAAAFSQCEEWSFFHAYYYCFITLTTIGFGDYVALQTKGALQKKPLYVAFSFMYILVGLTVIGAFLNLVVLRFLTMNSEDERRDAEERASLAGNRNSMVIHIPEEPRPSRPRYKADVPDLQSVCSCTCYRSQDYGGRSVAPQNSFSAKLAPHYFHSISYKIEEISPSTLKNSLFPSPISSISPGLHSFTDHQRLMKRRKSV
Chain of Kallikrein-7 (P49862 whole entry): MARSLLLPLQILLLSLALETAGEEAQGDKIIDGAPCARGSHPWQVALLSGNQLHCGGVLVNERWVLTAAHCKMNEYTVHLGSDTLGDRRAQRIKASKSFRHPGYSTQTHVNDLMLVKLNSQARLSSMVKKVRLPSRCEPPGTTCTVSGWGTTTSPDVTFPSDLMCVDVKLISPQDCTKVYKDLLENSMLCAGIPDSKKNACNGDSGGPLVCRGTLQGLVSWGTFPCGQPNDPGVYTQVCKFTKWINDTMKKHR
Chain of Potassium channel subfamily K member 3 (Homo sapiens, UniProt O14649) (O14649 whole entry): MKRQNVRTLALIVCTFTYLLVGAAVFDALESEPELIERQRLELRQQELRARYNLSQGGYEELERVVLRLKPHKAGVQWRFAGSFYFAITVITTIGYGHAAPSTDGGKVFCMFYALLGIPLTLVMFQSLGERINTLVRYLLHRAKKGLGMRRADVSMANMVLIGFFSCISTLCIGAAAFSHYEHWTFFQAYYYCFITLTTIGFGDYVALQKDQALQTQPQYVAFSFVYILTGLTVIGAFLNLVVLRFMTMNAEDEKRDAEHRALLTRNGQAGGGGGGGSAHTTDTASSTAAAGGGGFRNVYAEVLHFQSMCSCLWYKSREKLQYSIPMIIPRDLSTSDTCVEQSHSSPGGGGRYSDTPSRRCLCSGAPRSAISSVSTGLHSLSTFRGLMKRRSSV
Chain of Potassium channel subfamily K member 3 (Rattus norvegicus, UniProt O54912) (O54912 whole entry, the tested form may be a part): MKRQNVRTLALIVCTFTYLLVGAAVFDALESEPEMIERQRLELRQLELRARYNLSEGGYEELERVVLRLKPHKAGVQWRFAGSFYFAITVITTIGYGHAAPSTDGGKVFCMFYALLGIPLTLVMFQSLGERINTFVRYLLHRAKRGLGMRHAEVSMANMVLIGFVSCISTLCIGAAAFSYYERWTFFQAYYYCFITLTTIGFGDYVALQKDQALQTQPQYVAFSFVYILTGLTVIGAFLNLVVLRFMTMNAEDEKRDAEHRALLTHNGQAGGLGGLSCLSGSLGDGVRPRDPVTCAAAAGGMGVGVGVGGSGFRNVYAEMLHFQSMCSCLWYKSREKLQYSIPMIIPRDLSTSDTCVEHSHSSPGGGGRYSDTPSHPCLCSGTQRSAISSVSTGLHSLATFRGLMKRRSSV
Chain of Paired box protein Pax-8 (Q06710 whole entry): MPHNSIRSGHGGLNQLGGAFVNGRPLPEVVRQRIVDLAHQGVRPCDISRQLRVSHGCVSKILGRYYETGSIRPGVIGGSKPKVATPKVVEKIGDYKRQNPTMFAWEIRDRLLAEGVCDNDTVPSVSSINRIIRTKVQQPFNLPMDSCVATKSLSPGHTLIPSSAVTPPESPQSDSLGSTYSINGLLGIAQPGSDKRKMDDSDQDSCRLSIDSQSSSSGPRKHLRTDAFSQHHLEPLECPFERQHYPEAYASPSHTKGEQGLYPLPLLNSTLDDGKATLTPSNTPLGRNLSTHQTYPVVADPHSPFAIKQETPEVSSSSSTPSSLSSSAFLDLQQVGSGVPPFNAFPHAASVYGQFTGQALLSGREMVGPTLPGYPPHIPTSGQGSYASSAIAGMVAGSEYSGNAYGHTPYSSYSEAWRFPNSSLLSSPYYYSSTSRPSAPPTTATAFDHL

EC50 [1]: 9.55 µM (active)
SMILES: COc1ccc(C2Nc3ccccc3C(=O)N2NC(C)=O)c(OC)c1 (stereo not drawn)

SMILES: C[C@@H]1CN([C@@H](C)CO)C(=O)c2cc(-c3ccncc3)cnc2O[C@H]1CN(C)Cc1ccc(Oc2ccccc2)cc1
AC50 [2]: 15.3 µM (active)
AC50 [3]: 2.93 µM (active)
IC50 [4]: > 20 µM (inactive)

SMILES: CCCCN(CCCC)C(C(N)=O)c1ccc(OC)cc1 (stereo not drawn) [AMBUCETAMIDE]
IC50 [5]: > 33.3 µM (inactive)

SMILES: Cc1ccc(C2=Nc3ccccc3N=C(C(Cl)Cl)C2)cc1
EC50 [6]: > 67.5 µM (inactive)
EC50 [7]: > 67.5 µM (inactive)

IC50 [8]: 0.49 µM (active)
IC50 [9]: 1.11 µM (active)
IC50 [10]: 0.03 µM (active)
IC50 [11]: 0.108 µM (active)
SMILES: CCOc1ccccc1C(=O)Nc1cccc(NC(=O)C2CCCC2)c1

SMILES: Cc1nc(SCC(=O)Nc2nc3ccccc3s2)c(C#N)c(C)c1C
EC50 [12]: < 0.16 µM (active)
IC50 [13]: > 80 µM (inactive)
AC50 [14]: < 0.26 µM (active)
AC50 [15]: > 70 µM (inactive)
AC50 [16]: < 0.26 µM (active)
AC50 [17]: < 0.135 µM (active)
AC50 [18]: > 52 µM (inactive)
AC50 [19]: 0.0912 µM (active)
AC50 [20]: < 0.068 µM (active)
AC50 [21]: > 52 µM (inactive)

SMILES: NCCCC[C@H](N[C@@H](CCc1ccccc1)C(=O)O)C(=O)N1CCC[C@H]1C(=O)O [LISINOPRIL]
IC50 [22]: > 10 µM (inactive)
IC50 [23]: 4.03 µM (active)
IC50 [24]: 8.88 µM (inactive)
IC50 [25]: 3.39 µM (active)
IC50 [26]: 2.53 µM (active)
IC50 [27]: > 20 µM (inactive)
IC50 [28]: > 10 µM (inactive)
IC50 [29]: > 6.67 µM (inactive)
IC50 [30]: 2.24 µM (active)

SMILES: CCOC(=O)c1ccccc1C(=O)OCC [DIETHYL PHTHALATE]
IC50 [23]: > 20 µM (inactive)
IC50 [24]: > 20 µM (inactive)
IC50 [25]: > 20 µM (inactive)
IC50 [26]: > 20 µM (inactive)
IC50 [27]: > 20 µM (inactive)
IC50 [29]: > 20 µM (inactive)
IC50 [30]: > 20 µM (inactive)
IC50 [31]: > 20 µM (inactive)
